Assay results taken from patent US20240285681A1, “CELLS FOR TREATING INFECTIONS” (LIfT BioSciences Ltd, priority 2019, published 2024).
Several values for one entry are separate records, joined by “and”; a condition that tells them apart may be missing. Equal entries are not always repeated.

Columns and labels:
MRSA USA300 = assay: Neutrophil bacterial co-culture (BKA) assay, MRSA USA300; format: cell-based, Staphylococcus aureus; conditions: 2 hours
Experimental: The “MRSA assay” is carried out as follows: • a. admixing 100 μl of a 1×10^7 CFU/ml solution of MRSA strain USA300 in RPMI 1640 with 100 μl of a solution containing 1×10^7 granulocytes/ml; • b. incubating the admixture at 37° C. under shaking at 120 rpm; • c. taking a sample at 2 hours (diluting in sterile RPMI as needed) and plating on Tryptic Soy Agar; • d. incubating the plated sample at 37° C. for 24 hours; • e. counting the bacterial colonies; and • f. quantifying the total CFU content; and • g. calculating the % of MRSA cells killed based on the CFU content in steps a. and f using the formula ((CFU contentno effector−CFU contenteffector)/CFU contentno effector)×100.
(§1) 24 hours prior to use, overnight cultures (ONCs) of all strains (P. aeruginosa: multidrug resistant Cystic Fibrosis isolate RP73 (Di Lorenzo et al (2015), Mol. Immunol., 63, 166-175); MRSA: Community acquired strain USA300 (Diep et al (2006), Lancet, 367, 731-739)) were prepared by inoculating 20 ml tryptic soy broth (3% w/v TSB in deionised water) with 2 stock cryobeads for 24 hours at 37° C., under shaking at 120 rpm (Sciquip mini incu shake). After incubation, ONCs were centrifuged at 2,800 g for 20 minutes at 4° C. The pellet was then resuspended in 10 ml Roswell Park Memorial Institute (RPMI) 1640 medium (commercially available from Sigma-Aldrich, UK). Optical density readings were then taken for all strains and diluted in RPMI 1640 to an OD of 0.015, equivalent of 1×10^7 cfu/ml.
Bacterial cultures were prepared as described above. […] Post incubation, bacterial colonies were manually counted and the total cfu content quantified.
(§2) To validate an in vitro model of neutrophil bacterial killing activity (BKA) assay, increasing concentrations of neutrophils (1×10^5, 5×10^5 and 1×10^6 neutrophils per sample) were incubated with 1×10^6 cfu/ml of the P. aeruginosa strain RP73 under suspension. […] Post incubation, bacterial colonies were manually counted and the total cfu content quantified.

P. aeruginosa RP73 = assay: Neutrophil bacterial co-culture (BKA) assay, P. aeruginosa RP73; format: cell-based; conditions: 2 hours
Experimental: as §1
Bacterial cultures were prepared as described above. 100 μl of 1×10^7 cfu/ml bacterial strains were added to either 100 μl RPMI 1640, 100 μl 1×10^7/ml neutrophils or increasing concentrations of Tobramycin (for P. aeruginosa) or Vancomycin (for MRSA) (1, 10, 100 μg/ml). These cultures were then incubated at 37° C., under shaking at 120 rpm for up to 24 hours. At 2, 6 and 24 hours, 20 μl aliquots of each sample were diluted in sterile RPMI at 1/10, 1/100, 1/1000, 1/10000, 1/100000 and 1/1000000 and plated on Tryptic Soy Agar (TSA) and incubated at 37° C. for 24 hours. Post incubation, bacterial colonies were manually counted and the total cfu content quantified.
as §2, with “suspension. These neutrophil/bacterial cultures were then incubated for 2 hours at 37° C. under 120 rpm of shaking.” for “suspension.”

Structure (SMILES)	Bacterial Killing (%) (MRSA USA300; antibiotic 1 μg/ml)	Bacterial Killing (%) (MRSA USA300; antibiotic 100 μg/ml)	Bacterial Killing (%) (P. aeruginosa RP73; antibiotic 1 μg/ml)	Bacterial Killing (%) (P. aeruginosa RP73; antibiotic 10 μg/ml)	Bacterial Killing (%) (P. aeruginosa RP73; antibiotic 100 μg/ml)	Bacterial Killing (%) (MRSA USA300; antibiotic 10 μg/ml)
CN[C@H](CC(C)C)C(=O)N[C@H]1C(=O)N[C@@H](CC(N)=O)C(=O)N[C@H]2C(=O)N[C@H]3C(=O)N[C@H](C(=O)N[C@H](C(=O)O)c4cc(O)cc(O)c4-c4cc3ccc4O)[C@H](O)c3ccc(c(Cl)c3)Oc3cc2cc(c3O[C@@H]2O[C@H](CO)[C@@H](O)[C@H](O)[C@H]2O[C@H]2C[C@](C)(N)[C@H](O)[C@H](C)O2)Oc2ccc(cc2Cl)[C@H]1O [Vancomycin]	5.73±3.70% and 5.73%	92.58±2.01	–	–	–	–
NC[C@H]1O[C@H](O[C@H]2[C@H](O)[C@@H](O[C@H]3O[C@H](CO)[C@@H](O)[C@H](N)[C@H]3O)[C@H](N)C[C@@H]2N)[C@H](N)C[C@@H]1O [Tobramycin]	–	–	6.60±2.22% and 6.60%	77.78±13.40% and 77.78%	95.37±2.87	25.05±6.13
